BindingDB's records for doi:10.1021/jm00007a020 (Eastern Michigan University, 1995)
Square brackets hold non-standard residues; d marks the D form. Peptide text beside a SMILES is read from it. Ala(4-thiazolyl) = N[C@@H](Cc1cscn1)C(=O)O; 2Pal = N[C@@H](Cc1ccccn1)C(=O)O; 3Pal = N[C@@H](Cc1cccnc1)C(=O)O; 2Thi = N[C@@H](Cc1cccs1)C(=O)O

Experiment: Inhibition of [3H]- DPDPE binding to delta opioid receptor of guinea pig brain

| Compound | Ki [nM] |
| --- | --- |
| CC(C)[C@H](NC(=O)[C@H](CC(=O)O)NC(=O)[C@H](Cc1cccs1)NC(=O)[C@H](C)NC(=O)[C@@H](N)Cc1ccc(O)cc1)C(=O)N[C@H](C(=O)NCC(N)=O)C(C)C [(S)-3-((S)-2-{(S)-2-[(S)-2-Amino-3-(4-hydroxy-phenyl)-propionylamino]-propionylamino}-3-thiophen-2-yl-propionylamino)-N-{(S)-1-[(S)-1-(carbamoylmethyl-carbamoyl)-2-methyl-propylcarbamoyl]-2-methyl-propyl}-succinamic acid] (H-YA[2Thi]DVVG-NH2) | 1.4 |
| H-YAHDVVG-NH2 [(S)-3-[(S)-2-{(S)-2-[(S)-2-Amino-3-(4-hydroxy-phenyl)-propionylamino]-propionylamino}-3-(3H-imidazol-4-yl)-propionylamino]-N-{(S)-1-[(S)-1-(carbamoylmethyl-carbamoyl)-2-methyl-propylcarbamoyl]-2-methyl-propyl}-succinamic acid] | 317 |
| CC(C)[C@H](NC(=O)[C@H](CC(=O)O)NC(=O)[C@H](Cc1cccc(F)c1)NC(=O)[C@H](C)NC(=O)[C@@H](N)Cc1ccc(O)cc1)C(=O)N[C@H](C(=O)NCC(N)=O)C(C)C [(S)-3-[(S)-2-{(S)-2-[(S)-2-Amino-3-(4-hydroxy-phenyl)-propionylamino]-propionylamino}-3-(3-fluoro-phenyl)-propionylamino]-N-{(S)-1-[(S)-1-(carbamoylmethyl-carbamoyl)-2-methyl-propylcarbamoyl]-2-methyl-propyl}-succinamic acid] | 73.6 |
| CC(C)[C@H](NC(=O)[C@H](CC(=O)O)NC(=O)[C@H](Cc1ccc(F)cc1)NC(=O)[C@H](C)NC(=O)[C@@H](N)Cc1ccc(O)cc1)C(=O)N[C@H](C(=O)NCC(N)=O)C(C)C [(S)-3-[(S)-2-{(S)-2-[(S)-2-Amino-3-(4-hydroxy-phenyl)-propionylamino]-propionylamino}-3-(4-fluoro-phenyl)-propionylamino]-N-{(S)-1-[(S)-1-(carbamoylmethyl-carbamoyl)-2-methyl-propylcarbamoyl]-2-methyl-propyl}-succinamic acid] | 703 |
| CC(C)[C@H](NC(=O)[C@H](CC(=O)O)NC(=O)[C@H](Cc1c(F)c(F)c(F)c(F)c1F)NC(=O)[C@H](C)NC(=O)[C@@H](N)Cc1ccc(O)cc1)C(=O)N[C@H](C(=O)NCC(N)=O)C(C)C [(S)-3-((S)-2-{(S)-2-[(S)-2-Amino-3-(4-hydroxy-phenyl)-propionylamino]-propionylamino}-3-pentafluorophenyl-propionylamino)-N-{(S)-1-[(S)-1-(carbamoylmethyl-carbamoyl)-2-methyl-propylcarbamoyl]-2-methyl-propyl}-succinamic acid] | 135 |
| Cc1ccc(C[C@H](NC(=O)[C@H](C)NC(=O)[C@@H](N)Cc2ccc(O)cc2)C(=O)N[C@@H](CC(=O)O)C(=O)N[C@H](C(=O)N[C@H](C(=O)NCC(N)=O)C(C)C)C(C)C)cc1 [(S)-3-((S)-2-{(S)-2-[(S)-2-Amino-3-(4-hydroxy-phenyl)-propionylamino]-propionylamino}-3-p-tolyl-propionylamino)-N-{(S)-1-[(S)-1-(carbamoylmethyl-carbamoyl)-2-methyl-propylcarbamoyl]-2-methyl-propyl}-succinamic acid] | 2650 |
| CC(C)[C@H](NC(=O)[C@H](CC(=O)O)NC(=O)[C@H](Cc1ccccn1)NC(=O)[C@H](C)NC(=O)[C@@H](N)Cc1ccc(O)cc1)C(=O)N[C@H](C(=O)NCC(N)=O)C(C)C [(S)-3-((S)-2-{(S)-2-[(S)-2-Amino-3-(4-hydroxy-phenyl)-propionylamino]-propionylamino}-3-pyridin-2-yl-propionylamino)-N-{(S)-1-[(S)-1-(carbamoylmethyl-carbamoyl)-2-methyl-propylcarbamoyl]-2-methyl-propyl}-succinamic acid] (H-YA[2Pal]DVVG-NH2) | 62 |
| CC(C)[C@H](NC(=O)[C@H](CC(=O)O)NC(=O)[C@H](Cc1cccnc1)NC(=O)[C@H](C)NC(=O)[C@@H](N)Cc1ccc(O)cc1)C(=O)N[C@H](C(=O)NCC(N)=O)C(C)C [(S)-3-((S)-2-{(S)-2-[(S)-2-Amino-3-(4-hydroxy-phenyl)-propionylamino]-propionylamino}-3-pyridin-3-yl-propionylamino)-N-{(S)-1-[(S)-1-(carbamoylmethyl-carbamoyl)-2-methyl-propylcarbamoyl]-2-methyl-propyl}-succinamic acid] (H-YA[3Pal]DVVG-NH2) | 50 |
| CC(C)[C@H](NC(=O)[C@H](CC(=O)O)NC(=O)[C@H](Cc1cscn1)NC(=O)[C@H](C)NC(=O)[C@@H](N)Cc1ccc(O)cc1)C(=O)N[C@H](C(=O)NCC(N)=O)C(C)C [(S)-3-((S)-2-{(S)-2-[(S)-2-Amino-3-(4-hydroxy-phenyl)-propionylamino]-propionylamino}-3-thiazol-4-yl-propionylamino)-N-{(S)-1-[(S)-1-(carbamoylmethyl-carbamoyl)-2-methyl-propylcarbamoyl]-2-methyl-propyl}-succinamic acid] (H-YA[Ala(4-thiazolyl)]DVVG-NH2) | 40 |
| Cc1c(C)c(C)c(C[C@H](NC(=O)[C@H](C)NC(=O)[C@@H](N)Cc2ccc(O)cc2)C(=O)N[C@@H](CC(=O)O)C(=O)N[C@H](C(=O)N[C@H](C(=O)NCC(N)=O)C(C)C)C(C)C)c(C)c1C [(S)-3-((S)-2-{(S)-2-[(S)-2-Amino-3-(4-hydroxy-phenyl)-propionylamino]-propionylamino}-3-pentamethylphenyl-propionylamino)-N-{(S)-1-[(S)-1-(carbamoylmethyl-carbamoyl)-2-methyl-propylcarbamoyl]-2-methyl-propyl}-succinamic acid] | 10000 |
